{"source": "paper PMC10447463", "about": "“Data-mining unveils structure–property–activity correlation of viral infectivity enhancing self-assembling peptides” (Nature Communications, 2023)", "key": {"[1]": {"assay": "Conversion rate (CR) assay with fluorescamine", "assay_type": "physicochemical", "design": "key to CR: % = 100−100×filtrate/original fluorescence intensity", "in_short": "(§1)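 Spectra: 64 scans, 2 cm^-1, lyophilized PNF (1 mg/mL source). CR = 100 − 100 × filtrate/original fluorescamine signal; triplicate, ± SD.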"}, "[2]": {"assay_type": "physicochemical", "design": "key to Fibril / Fibril Formation / TEM 2cat / Fibril: 1 = fibrils present; 0 non-fibrillar structures"}, "[3]": {"assay": "Turbidity, derived count rate of scattered light", "assay_type": "physicochemical"}, "[4]": {"assay": "β-sheet content by ATR-FT-IR", "assay_type": "physicochemical", "in_short": "as §1"}, "[5]": {"assay": "Zeta-potential measurement", "assay_type": "physicochemical", "in_short": "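Charge on peptide aggregates was assessed by electrophoretic mobility in 1 mM KCl, converted per Smoluchowski. Prior aggregation: 1 mg/mL, pH 7.4 PBS, 1 d, RT.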"}, "[6]": {"test_system": "HIV-1 infection of TZM-bl cells", "assay": "HIV-1 infectivity enhancement assay, β-galactosidase luminescence", "assay_type": "cell-based", "settings": "for Log Infectivity: Log10 infection relative to EF-C, TZM-bl cells, asymmetric std dev errors; for Log10 Infection Rel EF-C: HIV-1 infection of TZM-bl cells"}}, "note": "Like-named read-outs stand apart in the source and are kept apart here.", "data": [{"sequence": "KAKAQANMWQ", "values": [{"measurement": "CR / %", "setting": "[1]; Fig. S7 panel B, conversion rate, fluorescamine assay", "value": 56.2, "unit": "%"}, {"measurement": "CR / %", "setting": "[1]; conversion of monomer to nanostructures, 3 kDa MWCO filtration, fluorescamine, ex 365 / em 470 nm, triplicate", "value": 56, "unit": "%"}, {"measurement": "CR", "setting": "[1]; conversion rate, fluorescamine assay", "value": 56.24}, {"measurement": "TEM 2cat", "setting": "[2]; Fig S10 panel D", "value": 0}, {"measurement": "Fibril", "setting": "[2]; Fig S10 panel E", "value": 0}, {"measurement": "TEM 2cat", "setting": "[2]; FigS12 panel A, fibril category by TEM", "value": 0}, {"measurement": "Fibril", "setting": "[2]; FigS12 panel B, TEM", "value": 0}, {"measurement": "Fibril / Fibril Formation", "setting": "[2]; TEM, 1 mg/mL, uranyl acetate stain, qualitative", "value": 0}, {"measurement": "Fibril", "setting": "[2]; TEM, 1 = fibrils present, 0 = non-fibrillar", "value": 0}, {"measurement": "Fibril", "setting": "[2]; TEM, 1 = fibrils present, 0 = non-fibrillar structures", "value": 0}, {"measurement": "Count Rate", "setting": "[3]; derived count rate of scattered light (turbidity)", "value": 56.17}, {"measurement": "Log10 Count Rate", "setting": "[3]; turbidity, derived count rate of scattered light, log10, data of Figure 2D", "value": 1.749}, {"measurement": "ß-sheet / %", "setting": "[4]; ATR-FT-IR of lyophilised 1 mg/mL PNF solution, peak integral ratio 1625-1635 cm-1, measured once", "value": 43, "unit": "%"}, {"measurement": "b -sheet / %", "setting": "[4]; Fig. S7 panel A, β-sheet content by ATR-FT-IR", "value": 42.81, "unit": "%"}, {"measurement": "Zeta-Pot.", "setting": "[5]", "value": -19.63}, {"measurement": "Zeta pot. / mV", "setting": "[5]; 1 mg/mL in PBS pH 7.4 from 10 mg/mL DMSO stock, 1 d RT, 60 µL diluted in 600 µL 1 mM KCl, Zetasizer Nano ZS, Smoluchowski, mean of triplicate", "value": -19.6, "unit": "mV"}, {"measurement": "Zeta-Potential / mV", "setting": "[5]; zeta-potential of peptide, source data of Figure 2C", "value": -14.675, "unit": "mV"}, {"measurement": "Zeta-Potential / mV", "setting": "[5]; zeta-potential of the peptide assemblies, mean, Figure 3A source data", "value": -19.63, "unit": "mV"}, {"measurement": "Rel-EFC", "setting": "[6]; 1.3 µM peptide, infection relative to EF-C (QCKIKQIINMWQ = 1)", "value": "0,01"}, {"measurement": "Log10 Infection Rel EFC", "setting": "[6]; 1.3 µM peptide, log10 of infection relative to EF-C", "value": "-2,15"}, {"measurement": "Log Infectivity", "setting": "[6]; Fig. S7 panel A (plotted against β-sheet content)", "value": -2.146}, {"measurement": "Log Infectivity", "setting": "[6]; Fig. S7 panel B (plotted against CR), rounded to two decimals", "value": -2.15}, {"measurement": "Log10 Infection Rel EF-C", "setting": "[6]; Log10 of infection rate relative to EF-C, Figure 3A source data", "value": -2.15}, {"measurement": "Log10 Infection Rel EF-C", "setting": "[6]; infection rate relative to EF-C, log10, data of Figure 2D", "value": -2.146}, {"measurement": "Log10 Infection Rel EF-C", "setting": "[6]; infection rate relative to EF-C, log10, source data of Figure 2C", "value": -2.146}, {"measurement": "Inf. rel. EF-C", "setting": "[6]; HIV-1 infection relative to EF-C, Fig 23 plot, panels A and B, mean of 3 values", "value": 0.008469}, {"measurement": "Inf. rel. EF-C", "setting": "[6]; HIV-1 infection relative to EF-C, Fig 23 plot, single data point, replicate 1", "value": 0.01122}, {"measurement": "Inf. rel. EF-C", "setting": "[6]; HIV-1 infection relative to EF-C, Fig 23 plot, single data point, replicate 2", "value": 0.003015}, {"measurement": "Inf. rel. EF-C", "setting": "[6]; HIV-1 infection relative to EF-C, Fig 23 plot, single data point, replicate 3", "value": 0.01117}, {"measurement": "Abs. Inf. / RLU s-1", "setting": "[6]; absolute infection rate, peptide 1.3 µM on cells, virus preincubated 10 min with fibrils, read 3 days post infection, mean of triplicate", "value": 193, "unit": "RLU s-1"}, {"measurement": "Abs. Inf.", "setting": "[6]; absolute infection signal, HIV-1 on TZM-bl cells, β-galactosidase luminescence", "value": 193.3}, {"measurement": "Log10 Inf. rel. to EF-C", "setting": "[6]; log10 of HIV-1 infection of TZM-bl cells relative to EF-C (EF-C = 0)", "value": -2.146}, {"measurement": "Inf. rel. EF-C", "setting": "[6]; n-fold infection vs virus only, relative to that of EF-C, 1.3 µM peptide", "value": 0.01}]}]}
